Ten molecules from PMC9650711, “Hydroxyl-Rich Hydrophilic Endocytosis-Promoting Peptide with No Positive Charge” (Journal of the American Chemical Society, 2022) can be followed below.

Format in all cases: cell-based, human
Series [1] deals with RB-EPP6 uptake in U87 cells. Kind of series: Endocytosis inhibitors treatment, RB-EPP6 uptake by flow cytometry. Particulars: inhibitor 1 h, then 500 nM RB-EPP6 1 h; for inhibition of RB-EPP6 uptake: flow cytometry median intensity; for effect on RB-EPP6 uptake (cholesterol extraction / binding): flow cytometry. Here is the method:
(§1) Flow cytometry experiments
(§2) To perform flow cytometry experiments, a NovoCyte flow cytometer (NovoExpress) was used.
(§3) Quantification of fluorescence intensity was achieved using the Novoxpress software. Fifty thousand cells were analyzed for each condition. A green fluorescent dye used for DNA staining, YOYO, was included in all the flow cytometry experiments, serving as a cell live/dead indicator.
For the YOYO-only group, the cells were treated with trypsin for 5-10 min and subsequently fixed in a 1.5 mL centrifuge tube using 4% paraformaldehyde at room temperature for 15 min. Then, fixed cells were washed with PBS once and were permeabilized using 90% MeOH on ice for 15 min. For all conditions, cells were incubated with YOYO in a phenol-free medium for half an hour, and then were centrifuged to remove the YOYO solution and resuspended in a fresh phenol-free medium before performing flow cytometry.
For general incubation, 300 k U87 cells were seeded in a 35×10 mm culture dish and incubated overnight under normal culturing conditions. Stock solutions of Dye-EPPs were made in DMSO to reach a concentration of 500 μM. Fresh cell culture medium was used to dilute the stock solution to 500 nM. Cells were incubated with RB-EPPs for desired time periods, followed by a one-time wash with phenol-free fresh culture medium before measurements. […]
(§4) Endocytosis inhibitors treatment
U87 cells were incubated with different endocytosis inhibitors for 1 h. Then, the media was replaced with fresh media containing 500 nM of RB-EPP6. After 1 h, a trypsin-EDTA solution (0.05%, Sigma) was added to detach the cells. The cells were collected by centrifugation and resuspended in phenol-free media. […]
Stock solutions of trackers for mitochondria, lysosome, and ER were diluted with cell culture medium into 100 nM, 500 nM, and 4 μM, respectively. RB-EPP6 was added to each working solution at 500 nM. U87 cells were incubated with the trackers and RB-EPP6 for 1 h and then washed once before confocal imaging.

Series [2] deals with U87 cells. Kind of series: Resazurin assay, cell viability. Here is the method: Time-dependent uptake experiment
U87 cells were incubated with RB-EPP6 at 500 nM for 1 h. After washing with fresh medium once, the cells were kept in the 5% CO2 incubator at 37 °C for desired time durations before […]
Temperature-dependent uptake experiment
U87 cells were kept in a 4 °C cold room for half an hour. After that, cells were incubated with RB-EPP 6 at 500 nM at 4 °C. Cells in the control group were maintained and incubated at 37 °C. After 1 h, cells were washed with fresh medium once before confocal imaging.
All the RB-EPPs were diluted in PBS to 100 μM. 700 μL of the testing peptides were added to the apical chamber of a Corning BioCoat Pre-coated PAMPA Plate. 200 μL PBS was added to the basolateral chamber. The plate was kept at 37 °C with 5% CO2 for 5 h, after which 80 μL samples were collected from each chamber for RB fluorescence intensity reading using the Synergy H1 […]
as §4
U87 cells were incubated with different endocytosis inhibitors for 1 h. Then, the media was replaced with fresh media containing 500 nM of RB-EPP6. After 1 h, a trypsin-EDTA solution (0.05%, Sigma) was added to detach the cells. […]
Resazurin was dissolved in DI water at a stock concentration of 6 mg/mL. […] The fluorescence intensity of the samples was recorded by a plate reader at 532 nm excitation and 585 nm emission wavelengths. […]
Background: The colour change of resazurin is a common sign of viable cells or microbes.

Series [3] concerns RB-EPP6 uptake in U87 cells. Nature of the series: FIBCD1 competition assay with CSA, RB-EPP6 uptake by flow cytometry. Particulars: 500 nM RB-EPP6 together with CSA, 1 h. Here is the method:
experiment. Poly-A selective RNA-seq libraries were prepared using the NEB NextUltra II kit (New England Biolabs) and sequenced on an Illumina NextSeq500 with 2×75 pair-end reads. The obtained sequencing data was preprocessed using fastp, aligned using STAR, and counted using featureCounts. Differentially expressed genes were identified using DESeq2. The sequence data and analysis reports are deposited in the GEO repository (Accession # GSE202764) […]
U87 cells were incubated with 500 nM RB-EPP6 and YOYO, together with chondroitin sulfate (CSA) in complete media. After 1 h, trypsin was used to detach the cells. Cell pellets were collected by centrifugation. Fresh phenol-free medium was added to each condition. […]
Human FIBCD1 cDNA with an MYC-DDK tag was ordered from Origene (#RC206180) and was expressed using the mammalian expression system kit ExpiCHOTM (#A29133) as generally described by MAN0014337. […] The obtained full-length FIBCD1 was quantified using BCA.
Fluorescence polarization (FP) assay
Solutions of RB-EPPs (in 1% BSA/PBST) were added to different concentrations of full-length FIBCD1 (in 1% BSA/PBST). […] The solutions were incubated at room temperature for 30 minutes on an orbital shaker, and the fluorescence polarization values were quantified using a BioTek Synergy H1 plate reader, with an FP filter set (excitation 530/25, emission 590/35). […]
For orientation: Flow cytometry measures light scatter and fluorescence of single cells or particles in a stream.

In series [4] the test system is RB-EPP6 uptake in U87 cells. Nature of the series: Heparin-binding assay, RB-EPP6 uptake by flow cytometry. Particulars: heparin sulfate 10-200 μg/mL 30 min, then with 500 nM RB-EPP6 1 h.
The test system of series [5] is U87 cells. Kind of series: Uptake and nuclear accumulation of TO- and EB-labeled EPPs, confocal. Particulars: confocal imaging, TO conjugates 500 nM, EB-EPP6 2 ug/mL or 6 hr. Here is the method:
Confocal imaging experiments
To image the cells, a Zeiss 880 inverted confocal laser scanning microscope (Carl Zeiss, Germany) was used. Image acquisition and analyses were carried out using the manufacturer’s software (ZEN, Carl Zeiss). Quantification of fluorescence intensity in single cells was performed using Fiji […]
as §1, §2, §3
For the YOYO-only group, the cells were treated with trypsin for 5-10 min and subsequently fixed in a 1.5 mL centrifuge tube using 4% paraformaldehyde at room temperature for 15 min. Then, fixed cells were washed with PBS once and were permeabilized using 90% MeOH on ice for 15 min. For all conditions, cells were incubated with YOYO in a phenol-free medium for half an hour, and then were centrifuged to remove the YOYO solution and resuspended in a fresh phenol-free medium before performing flow cytometry. […]
2 μL of RB-EPP (in DMSO) was added to the solution at a concentration of 500 μM. […] Samples were collected from both phases and quantified by Analytical HPLC separately. […]

Regarding `O=C(N/N=C/c1ccc(O)c(O)c1)c1cc2ccccc2cc1O` [Dynasore], the “inhibition of RB-EPP6 uptake” value in series [1] is recorded as 86%.

For the molecule `COC[C@H]1OC(=O)c2coc3c2[C@@]1(C)C1=C(C3=O)[C@@H]2CCC(=O)[C@@]2(C)C[C@H]1OC(C)=O` [wortmannin], the “inhibition of RB-EPP6 uptake” value in series [1] turned out to be 48%.

`O=C1NC(=NS(=O)(=O)c2cccc3ccccc23)S/C1=C\c1ccc(Br)cc1` [Pitstop 2]: the “inhibition of RB-EPP6 uptake” value in series [1] was 9%.

For `C=C1[C@@H](C)[C@H]2[C@H](Cc3ccccc3)NC(=O)[C@]23[C@H](OC(C)=O)/C=C/[C@@](C)(O)C(=O)[C@@H](C)C/C=C/[C@H]3[C@@H]1O` [cytochalasin D], the “inhibition of RB-EPP6 uptake” value in series [1] is on record as 38%.

chondroitin sulfate A [CSA]: the “effect on cell viability” value with U87 cells [2] is recorded as “without affecting cell viability”. The “effect on RB-EPP6 uptake (competitive uptake)” value in series [3] was “inhibit RB-EPP6 uptake in a concentration-dependent manner”.

`CCCCC[C@@H](O)[C@H]1C(=O)O[C@H](C)[C@@H](O)/C=C/C=C/C=C/C=C/C=C(\C)[C@@H](O)C[C@H](O)C[C@H](O)C[C@H](O)C[C@H](O)C[C@H](O)C[C@@H]1O` [filipin]: the “effect on RB-EPP6 uptake (cholesterol extraction / binding)” value in series [1] is recorded as “did not inhibit”.

Consider heparin sulfate, for which the “effect on RB-EPP6 uptake” value in series [4] is reported as “did not affect”.

In the case of methyl-β-cyclodextrin, in series [1], the “effect on RB-EPP6 uptake (cholesterol extraction / binding)” value is given as “did not inhibit”.

In the case of `CC[n+]1c(-c2ccccc2)c2cc(N)ccc2c2ccc(N)cc21` [EB, ethidium bromide], in the series with U87 cells [5], the “uptake / intracellular localisation” value was “did not show any uptake”.

Take `c1ccc2c(c1)Nc1ccccc1S2` [phenothiazine]: the “inhibition of RB-EPP6 uptake” value in series [1] is recorded as “no inhibition”.
